Measured values as given in patent publication US20240349733A1 (priority 2023, published 2024).
“Also recorded” adds a separate entry of the source. Read-outs that look alike come from different tables or passages of the source. Ends that are not written are not given here.

What was measured:
[1] = molecular target: CLas BamA protein (Candidatus Liberibacter asiaticus); experiment: BLI (BLItz), […], global fit, triplicate
CLas [2] = type: cell-based, Candidatus Liberibacter asiaticus; conditions: 72 hours; 25, 50, 100 μg/ml
L. crescens [3] = system: L. crescens
CLas [4] = type: in vivo, Candidatus Liberibacter asiaticus; conditions: for Reduction in CLas titers compared to SOD2* or SOD12 alone: roots of 4 months old composite plants stably expressing the STAMP
[5] = system: putative CLas cells in bacterial extracts from HLB-affected trees; type: binding, Candidatus Liberibacter asiaticus
R. grahamii [6] = type: binding, Rhizobium grahamii
R. galegae [7] = experiment: FITC-labeled peptide binding assay, fluorescence microscopy; set-up: species or system Rhizobium galegae
[8] = system: cells in healthy citrus tree extracts; type: binding
E. coli = experiment: FITC-labeled peptide binding assay, fluorescence microscopy; set-up: species or system Escherichia coli
L. crescens [9] = type: binding, Liberibacter crescens
CLas BamA protein = CLas BamA protein (Candidatus Liberibacter asiaticus, UniProt Q32TE9); type: binding; conditions: for Kd: read-out: KD, affinity constant
R. grahamii [10] = type: cell-based, Rhizobium grahamii; conditions: 10, 25, 50, 100 μg/ml
R. galegae [11] = type: cell-based, Rhizobium galegae; conditions: N- or C-terminus orientation
[12] = BLI, pH 6.5 Tris buffer, mean ± SD
[13] = binders 16 μM, bacterial extracts from HLB-affected citrus trees
[14] = binders 16 μM, unrelated bacterium
[15] = especially at lower dosages (50 μg/ml)

With ACT57020.1_94-118 (peptide) the Kd [1] was 209 nM, the koff [1] was 0.0032 s⁻¹ and the kon [1] was 15900 M⁻¹ s⁻¹.

In the case of “RICESASYRFKGICVSRSNCANVCKNEGFPGGRCRGFRRRCLCYKHCG (cysteines drawn unpaired) [SOD12]”, the “Anti-CLas activity (relative CLas titers by qPCR)” value (CLas [2]) is reported as “ineffective or moderately effective”, the “Mortality of L. crescens at lower dosage” value (L. crescens [3]) is reported as “ineffective” and the “Mortality rate of L. crescens” value (L. crescens [3]) is reported as 65-85%. The “CLas titers compared to empty vector controls” value (CLas [4]; in vivo) was “significantly lowered”.

For ACT56973.1_80-96 (peptide), the Kd [1] was 248 nM, the koff [1] was 0.211 s⁻¹ and the kon [1] was 852000 M⁻¹ s⁻¹.

For “MGINGFKFLSDIHHFCS [compound 22602, MGINGFKFLSDIHHFCS]”, the “Binding of FITC-labeled binder to CLas cells” value (“Binding … to CLas cells” for short) [5] was “consistent binding; also recorded: bound”, the “Binding of FITC-labeled binder to R. grahamii” value (“Binding … to R. grahamii” below) (R. grahamii [6]) was “consistent binding; also recorded: bound” and the “Binding of FITC-labeled binder to R. galegae” value (“Binding … to R. galegae” below) (R. galegae [7]) was “consistent binding; also recorded: bound”. The “Binding of FITC-labeled binder to cells in healthy citrus tree extracts” value (shortened to “Binding of FITC-labeled binder to cells”) [8] was “not”, the “Binding of FITC-labeled binder to E. coli” value (“Binding … to E. coli” below) (E. coli) was “not to E. coli” and the “Binding of FITC-labeled binder to L. crescens” value (“Binding … to L. crescens” below) (L. crescens [9]) was “consistent binding; also recorded: bound”.

In the case of DLHPQFQNLLKKSQN [ACT56869.1_241-255], the “Ka, rate of association” value (CLas BamA protein; [12]) is reported as 49610 ± 1 M⁻¹ s⁻¹, the “Kd, rate of dissociation” value (CLas BamA protein; [12]) is reported as 0.01167 ± 1 s⁻¹ and the Kd (CLas BamA protein; [12]) is reported as 270 nM.

With WHVTYF [#12] the “Binding … to CLas cells” value [5, 13] was “bound”, the “Binding … to R. grahamii” value (R. grahamii [6]; binders 16 μM) was “bound” and the “Binding … to R. galegae” value (R. galegae [7]; binders 16 μM) was “bound”. For the same molecule, the “Binding of FITC-labeled binder to cells” value ([8]; binders 16 μM) was “not”, the “Binding … to E. coli” value (E. coli; [14]) was “not to E. coli” and the “Binding … to L. crescens” value (L. crescens [9]; binders 16 μM) was “bound”.

For ACT56869.1_241-255 (peptide), the Kd [1] was 270 nM, the koff [1] was 0.0117 s⁻¹ and the kon [1] was 49600 M⁻¹ s⁻¹.

QSFYYVSQKKKWFPVKF [ACT56973.1_80-96] was tested, and the “Ka, rate of association” value (CLas BamA protein; [12]) was 852433 ± 1 M⁻¹ s⁻¹, the “Kd, rate of dissociation” value (CLas BamA protein; [12]) was 0.2111 ± 1 s⁻¹ and the Kd (CLas BamA protein; [12]) was 248 nM.

For “SRNSSIALGLRRAYAVFNYFVARGI [compound 57020]”, the “Binding … to CLas cells” value [5] was “consistent binding; also recorded: bound”, the “Binding … to R. grahamii” value (R. grahamii [6]) was “consistent binding; also recorded: bound” and the “Binding … to R. galegae” value (R. galegae [7]) was “consistent binding; also recorded: bound”. The “In vitro growth inhibition of R. grahamii, efficacy compared to SOD12 alone” value (R. grahamii [10]) was “significantly greater efficacy”, the “Binding of FITC-labeled binder to cells” value [8] was “not” and the “Ka, rate of association” value (CLas BamA protein; pH 6.5) was 15857 ± 1 M⁻¹ s⁻¹. The “Kd, rate of dissociation” value (CLas BamA protein; pH 6.5) was 0.0032 ± 1 s⁻¹, the Kd (CLas BamA protein; pH 6.5) was 209 nM and the “Binding … to E. coli” value (E. coli) was “not to E. coli”. The “Binding … to L. crescens” value (L. crescens [9]) was “consistent binding; also recorded: bound”.

`NC(N)=NC(=O)CC(Nc1nc(N=C(N)N)nc(NC2CCC(NC(=O)Cn3nnc(-c4ccc(F)cc4)n3)CC2)n1)C1CC1` (centres unmarked) [MRL-494, reference compound] was tested, and the “Kd, rate of dissociation” value (CLas BamA protein; [12]) was 0.0813 ± 1 s⁻¹ and the Kd (CLas BamA protein; [12]) was 6970 nM.

For WHVTFY [#11], the “Binding … to CLas cells” value [5, 13] was “bound”, the “Binding … to R. grahamii” value (R. grahamii [6]; binders 16 μM) was “bound” and the “Binding … to R. galegae” value (R. galegae [7]; binders 16 μM) was “bound”. The “Binding of FITC-labeled binder to cells” value ([8]; binders 16 μM) was “not”, the “Binding … to E. coli” value (E. coli; [14]) was “not to E. coli” and the “Binding … to L. crescens” value (L. crescens [9]; binders 16 μM) was “bound”.

B1: 57020-SoD2*: STAMP, SEQ ID NO: 27; binder 57020, GGSGGS linker, SOD2* (peptide)
chain: SRNSSIALGLRRAYAVFNYFVARGIGGSGGSGIFSSRKCKTPSKTFKGICTRDSNCDTSCRYEGYPAGDCKGIRRRCLCCTHT
With B1 the “Reduction in CLas titers compared to SOD2* or SOD12 alone” value (“Reduction in CLas titers” below) (CLas [4]) was “even greater reduction in CLas titers”.

B2: 57020-SOD12: STAMP, SEQ ID NO: 23; binder 57020, GGSGGS linker, SOD12 (peptide)
chain: SRNSSIALGLRRAYAVFNYFVARGIGGSGGSRICESASYRFKGICVSRSNCANVCKNEGFPGGRCRGFRRRCLCYKHCG
For B2, the “In vitro growth inhibition of R. grahamii, efficacy compared to SOD12 alone” value (R. grahamii [10]; [15]) was “significantly greater efficacy” and the “Efficacy in R. galegae compared with 22602-SOD12 and SOD12-57020 (binder orientation)” value (R. galegae [11]) was “lower efficacy”.

B3: 22602-SOD12: STAMP, SEQ ID NO: 21; binder 22602, GGSGGS linker, SOD12 (peptide)
chain: MGINGFKFLSDIHHFCSGGSGGSRICESASYRFKGICVSRSNCANVCKNEGFPGGRCRGFRRRCLCYKHCG
B3 was tested, and the “Reduction in CLas titers” value (CLas [4]) was “even greater reduction in CLas titers”.

B4: 22602-SoD2*: STAMP, SEQ ID NO: 25; binder 22602, GGSGGS linker, SOD2* (peptide)
chain: MGINGFKFLSDIHHFCSGGSGGSGIFSSRKCKTPSKTFKGICTRDSNCDTSCRYEGYPAGDCKGIRRRCLCCTHT
In the case of B4, the “Reduction in CLas titers” value (CLas [4]) is reported as “even greater reduction in CLas titers”.

B5: SOD12-22602: STAMP, SEQ ID NO: 22; SOD12, GGSGGS linker, binder 22602 (peptide)
chain: RICESASYRFKGICVSRSNCANVCKNEGFPGGRCRGFRRRCLCYKHCGGGSGGSMGINGFKFLSDIHHFCS
B5 was tested, and the “Efficacy in R. galegae compared with 22602-SOD12 and SOD12-57020 (binder orientation)” value (R. galegae [11]) was “lower efficacy”.

B6: SOD12-57020: STAMP, SEQ ID NO: 24; SOD12, GGSGGS linker, binder 57020 (peptide)
chain: RICESASYRFKGICVSRSNCANVCKNEGFPGGRCRGFRRRCLCYKHCGGGSGGSSRNSSIALGLRRAYAVFNYFVARGI
For B6, the “In vitro growth inhibition of R. grahamii, efficacy compared to SOD12 alone” value (R. grahamii [10]; [15]) was “significantly greater efficacy”.
